In patent publication US20160374944A1, “COMPOSITIONS AND METHODS FOR TREATING AND PREVENTING CANCER BY TARGETING AND INHIBITING CANCER STEM CELLS” (priority 2011, published 2016):

How the values were obtained:
[1] = system: TCF/LEF activity in pancreatic CSCs; assay: TCF/LEF responsive reporter; assay type: cell-based, human
Method: (A) Pancreatic CSCs were treated with EGCG (0-60 μM) for 48 h. At the end of incubation period, the expression of Snail, ZEB1 and Slug was measured by q-RT-PCR. […] (B) Transwell migration assay. Pancreatic CSCs were plated in the top chamber of the transwell and treated with EGCG (0-60 μM) for 24 h. Cells migrated to the lower chambered were fixed with methanol, stained with crystal violet and counted. […] (C) Matrigel invasion assay. CSCs were plated onto the Matrigel-coated membrane in the top chamber of the transwell and treated with EGCG (0-60 μM) for 48 h. Cells invaded to the lower chambered were fixed with methanol, stained with crystal violet and counted. […] (D) Effects of EGCG on TCF-1/LEF activity. […] Transduced CSCs were treated with EGCG (0-60) for 48 h and the GFP fluorescence was measured. […] Cell viability was measured by trypan blue assay. […] At the end of incubation period, colonies were counted. […] Cells invaded to the lower chambered were fixed with methanol, stained with crystal violet and counted. […] Cells migrated to the lower chambered were fixed with methanol, stained with crystal violet and counted. […] Apoptosis was measured by TUNEL assay. […] Transduced CSCs were treated with EGCG (40 μM) with or without quercetin (20 μM) for 48 hrs and the luciferase activity was measured.

Pancreatic CSCs [2] = assay: pancreatic CSCs xenografted sub-cutaneously in NSG mice; assay type: in vivo; details: NOD/SCID/IL2R gamma mice, 20 mg/kg, 6 weeks
Method: (A) Pancreatic CSCs were orthotopically implanted in pancreas of NSG mice, and treated with or without sulforaphane 20 mg/kg, for 6 weeks, (B and C) Pancreatic CSCs were xenografted sub-cutaneously in NSG mice, and treated with or without rottlerin and embelin 20 mg/kg, for 6 weeks, (D and E) Prostate CSCs were xenografted sub-cutaneously in NSG mice, and treated with or without rottlerin and embelin 20 mg/kg, for 6 weeks. At the end of the treatment, weights of tumors in treated mice were compared with control mice.

[3] = system: Notch reporter activity in prostate CSCs; assay: Notch-responsive dual luciferase reporter; assay type: cell-based, human; details: rottlerin 0-2 μM, 24 h, dual luciferase assay
Method: FIG. 17 graphs showing the regulation of Shh, Notch and TGFβ pathways by rottlerin. […] The expression of Patched-1, Patched-2, SMO, Gli1 and Gli2 was measured by qRT-PCR. […] Data were normalized with GAPDH. (D) Prostate CSCs were treated with rottlerin (0-1 μM) for 24 h. The expression of Notch1, Notch3 and JAG1 was measured by qRT-PCR. (E) TCF/LEF-1, Gli and Notch reporter activities. Prostate CSCs were transduced with a mixture of TCF/LEF1-, Gli-, or Notch-responsive firefly luciferase construct and Renilla luciferase construct (40:1) along with lipofectamine. After transduction, medium was changed and CSCs were treated with rottlerin (0-2 μM) for 24 h. […] (F) Immunofluorescence analysis of Gli1 and Gli2 expression in prostate CSCs. Green=Gli1 or Gli2; red=nucleus.

Prostate CSCs = assay: colony formation in soft agar; assay type: cell-based, human; details: 21 days; embelin 0-6 μM, rottlerin 0-2 μM
Method: (§1) In particular, embelin is shown to inhibit spheroid and colony formation, and induce caspase-3 and apoptosis. (A) Prostate CSCs were grown in CSC medium and treated with embelin (0-6 μM) for 7 days to obtain primary spheroids. At the end of incubation period, spheroids were collected, reseeded and treated with embelin for another week to obtain secondary spheroids. Cell viability in spheroids was measured by trypan blue assay at the end of 7 and 14 days. […] (B) Prostate CSCs were seeded in soft agar and treated with embelin (0-6 μM) for 21 days. […] (C and D) Activation of caspase-3 and induction of apoptosis is shown.
as §1, with “(A)” for “In particular, embelin is shown to inhibit spheroid and colony formation, and induce caspase-3 and apoptosis. (A)”, “rottlerin (0-2” for “embelin (0-6”, “rottlerin” for “embelin”, “apoptosis.” for “apoptosis is shown.”

Pancreatic CSCs [4] = assay: spheroid formation and cell viability in spheroids (trypan blue); assay type: cell-based, human; details: SFN 0-10 μM with or without quercetin 20 μM, 7 days

## O=C(O[C@@H]1Cc2c(O)cc(O)cc2O[C@@H]1c1cc(O)c(O)c(O)c1)c1cc(O)c(O)c(O)c1 [EGCG, epigallocatechin gallate]
[1]; EGCG 0-60, 48 h
  TCF/LEF activity: inhibited TCF/LEF activity
[1]; EGCG 40 μM with or without quercetin 20 μM, 48 hrs, luciferase
  TCF/LEF transcriptional activity: inhibited

## CC(=O)c1c(O)c(C)c(O)c(Cc2c(O)c3c(c(C(=O)/C=C/c4ccccc4)c2O)OC(C)(C)C=C3)c1O [rottlerin]
Pancreatic CSCs [2]
  tumor growth (weights of tumors vs control mice): inhibit tumor growth
[3]
  Notch responsive reporter activity: inhibited the TCF/LEF1, Gli1 and Notch responsive reporter activities in a dose-dependent manner
Prostate CSCs
  colony formation in soft agar: inhibited

## C[S+]([O-])CCCCN=C=S (stereo not shown) [sulforaphane]
Pancreatic CSCs [4]
  cell viability in spheroids: inhibited the cell viability and colony formation of pancreatic CSCs in a dose-dependent manner

## O=c1c(O)c(-c2ccc(O)c(O)c2)oc2cc(O)cc(O)c12 [quercetin]
Pancreatic CSCs [4]
  cell viability in spheroids: effective alone
